# In ChEMBL document CHEMBL4041544, “Discovery of new selective glucocorticoid receptor agonist leads” (Bioorg Med Chem Lett, 2017):
# Target: T1, Glucocorticoid receptor (Homo sapiens, UniProt P04150)
# T1 sequence (P04150 whole entry): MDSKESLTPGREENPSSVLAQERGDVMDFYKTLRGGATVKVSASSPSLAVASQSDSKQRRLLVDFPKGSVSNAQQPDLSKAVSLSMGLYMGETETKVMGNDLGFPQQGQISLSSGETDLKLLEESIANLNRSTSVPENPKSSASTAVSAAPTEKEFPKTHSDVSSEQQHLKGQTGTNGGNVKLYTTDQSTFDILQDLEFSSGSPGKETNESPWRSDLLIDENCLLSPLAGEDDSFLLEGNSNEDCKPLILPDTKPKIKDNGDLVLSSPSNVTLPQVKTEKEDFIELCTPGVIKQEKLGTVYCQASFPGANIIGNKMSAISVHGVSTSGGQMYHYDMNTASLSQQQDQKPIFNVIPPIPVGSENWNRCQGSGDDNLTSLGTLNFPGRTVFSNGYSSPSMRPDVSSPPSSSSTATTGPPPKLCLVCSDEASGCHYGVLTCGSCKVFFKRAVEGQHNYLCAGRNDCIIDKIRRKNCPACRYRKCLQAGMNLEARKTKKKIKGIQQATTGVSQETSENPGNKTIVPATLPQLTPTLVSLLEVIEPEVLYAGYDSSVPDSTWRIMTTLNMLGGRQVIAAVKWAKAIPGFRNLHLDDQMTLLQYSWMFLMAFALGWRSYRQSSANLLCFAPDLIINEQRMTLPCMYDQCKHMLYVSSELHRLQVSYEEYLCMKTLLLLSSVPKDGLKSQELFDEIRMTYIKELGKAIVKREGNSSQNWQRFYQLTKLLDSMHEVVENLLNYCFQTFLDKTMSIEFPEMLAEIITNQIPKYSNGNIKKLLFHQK
# Assay: Transrepression activity at glucocorticoid receptorin human HeLa cells assessed as inhibition of TPA-induced collagenase promoter activity by luciferase reporter gene assay
# Format: cell-based
# Settings: not given
row,IC50 [nM],SMILES
1,39.8,Cc1ncc2c(N[C@H]3c4ccc(F)c(O)c4C(C)(C)C[C@]3(O)C(F)(F)F)cc(F)cc2n1
2,5.01,CC[C@@H]1C[C@](O)(C(F)(F)F)[C@@H](Nc2cccc3nc(C)ccc23)c2ccc(F)c(O)c21
3,3.98,CC(C)(CC(O)(CNc1cccc2c(=O)[nH]ccc12)C(F)(F)F)c1cccc(F)c1O (stereo not drawn)

# Target: T1, Glucocorticoid receptor
# Assay: Transactivation activity at glucocorticoid receptor in human HeLa cells assessed as induction of MMTV promoter activity by luciferase reporter gene assay
# Format: cell-based
# Settings: not given
row,pEC50,SMILES
1,6.8,Cc1ncc2c(N[C@H]3c4ccc(F)c(O)c4C(C)(C)C[C@]3(O)C(F)(F)F)cc(F)cc2n1
2,7.9,CC[C@@H]1C[C@](O)(C(F)(F)F)[C@@H](Nc2cccc3nc(C)ccc23)c2ccc(F)c(O)c21
3,7.6,CC(C)(CC(O)(CNc1cccc2c(=O)[nH]ccc12)C(F)(F)F)c1cccc(F)c1O (stereo not drawn)

# Target: T1, Glucocorticoid receptor
# Assay: Transrepression activity at glucocorticoid receptor in human THP1 cells assessed as receptor-mediated anti-inflammatory activity by measuring inhibition of LPS-induced IL-8 production
# Format: cell-based
# Settings: not given
row,IC50 [nM],SMILES
1,39.8,Cc1ncc2c(N[C@H]3c4ccc(F)c(O)c4C(C)(C)C[C@]3(O)C(F)(F)F)cc(F)cc2n1
2,5.01,CC[C@@H]1C[C@](O)(C(F)(F)F)[C@@H](Nc2cccc3nc(C)ccc23)c2ccc(F)c(O)c21
3,3.98,CC(C)(CC(O)(CNc1cccc2c(=O)[nH]ccc12)C(F)(F)F)c1cccc(F)c1O (stereo not drawn)

# Target: T1, Glucocorticoid receptor
# Assay: Binding affinity to recombinant human glucocorticoid receptor expressed in baculovirus infected sf9 cells
# Settings: not given
row,IC50 [nM],SMILES
1,126,Cc1ncc2c(N[C@H]3c4ccc(F)c(O)c4C(C)(C)C[C@]3(O)C(F)(F)F)cc(F)cc2n1
2,12.6,CC[C@@H]1C[C@](O)(C(F)(F)F)[C@@H](Nc2cccc3nc(C)ccc23)c2ccc(F)c(O)c21
3,2.51,CC(C)(CC(O)(CNc1cccc2c(=O)[nH]ccc12)C(F)(F)F)c1cccc(F)c1O (stereo not drawn)

# Target: T2, Progesterone receptor (Homo sapiens, UniProt P06401)
# T2 sequence (P06401 whole entry): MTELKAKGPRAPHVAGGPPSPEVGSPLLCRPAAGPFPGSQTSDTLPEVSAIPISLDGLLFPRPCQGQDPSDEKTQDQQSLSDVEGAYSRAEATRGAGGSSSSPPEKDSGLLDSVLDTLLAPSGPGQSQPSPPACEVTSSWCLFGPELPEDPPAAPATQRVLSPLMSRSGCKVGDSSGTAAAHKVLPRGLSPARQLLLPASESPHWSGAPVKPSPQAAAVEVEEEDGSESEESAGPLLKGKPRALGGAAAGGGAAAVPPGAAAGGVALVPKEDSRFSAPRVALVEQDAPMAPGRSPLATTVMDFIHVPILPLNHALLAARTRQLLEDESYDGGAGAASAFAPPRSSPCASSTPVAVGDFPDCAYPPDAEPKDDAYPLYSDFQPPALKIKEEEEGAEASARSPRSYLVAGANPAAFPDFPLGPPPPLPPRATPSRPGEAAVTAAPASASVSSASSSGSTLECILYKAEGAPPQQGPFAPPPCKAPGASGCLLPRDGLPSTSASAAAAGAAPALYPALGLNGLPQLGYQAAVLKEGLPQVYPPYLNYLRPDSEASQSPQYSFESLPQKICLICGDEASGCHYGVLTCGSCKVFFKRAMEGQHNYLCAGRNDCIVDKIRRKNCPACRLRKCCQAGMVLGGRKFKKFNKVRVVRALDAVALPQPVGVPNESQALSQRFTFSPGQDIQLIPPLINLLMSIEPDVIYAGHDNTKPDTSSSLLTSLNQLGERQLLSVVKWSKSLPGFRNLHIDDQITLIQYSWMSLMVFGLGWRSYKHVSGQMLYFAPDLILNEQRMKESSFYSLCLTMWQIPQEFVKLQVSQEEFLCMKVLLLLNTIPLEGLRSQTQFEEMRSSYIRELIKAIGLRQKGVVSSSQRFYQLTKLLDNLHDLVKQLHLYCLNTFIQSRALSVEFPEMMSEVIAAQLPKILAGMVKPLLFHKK
# Assay: Binding affinity to recombinant human progesterone receptor expressed in baculovirus infected sf9 cells
# Settings: not given
row,IC50 [nM],SMILES
1,> 1000,Cc1ncc2c(N[C@H]3c4ccc(F)c(O)c4C(C)(C)C[C@]3(O)C(F)(F)F)cc(F)cc2n1
2,794,CC[C@@H]1C[C@](O)(C(F)(F)F)[C@@H](Nc2cccc3nc(C)ccc23)c2ccc(F)c(O)c21
3,200,CC(C)(CC(O)(CNc1cccc2c(=O)[nH]ccc12)C(F)(F)F)c1cccc(F)c1O (stereo not drawn)

# Target: T3, Mineralocorticoid receptor (Homo sapiens, UniProt P08235)
# T3 sequence (P08235 whole entry): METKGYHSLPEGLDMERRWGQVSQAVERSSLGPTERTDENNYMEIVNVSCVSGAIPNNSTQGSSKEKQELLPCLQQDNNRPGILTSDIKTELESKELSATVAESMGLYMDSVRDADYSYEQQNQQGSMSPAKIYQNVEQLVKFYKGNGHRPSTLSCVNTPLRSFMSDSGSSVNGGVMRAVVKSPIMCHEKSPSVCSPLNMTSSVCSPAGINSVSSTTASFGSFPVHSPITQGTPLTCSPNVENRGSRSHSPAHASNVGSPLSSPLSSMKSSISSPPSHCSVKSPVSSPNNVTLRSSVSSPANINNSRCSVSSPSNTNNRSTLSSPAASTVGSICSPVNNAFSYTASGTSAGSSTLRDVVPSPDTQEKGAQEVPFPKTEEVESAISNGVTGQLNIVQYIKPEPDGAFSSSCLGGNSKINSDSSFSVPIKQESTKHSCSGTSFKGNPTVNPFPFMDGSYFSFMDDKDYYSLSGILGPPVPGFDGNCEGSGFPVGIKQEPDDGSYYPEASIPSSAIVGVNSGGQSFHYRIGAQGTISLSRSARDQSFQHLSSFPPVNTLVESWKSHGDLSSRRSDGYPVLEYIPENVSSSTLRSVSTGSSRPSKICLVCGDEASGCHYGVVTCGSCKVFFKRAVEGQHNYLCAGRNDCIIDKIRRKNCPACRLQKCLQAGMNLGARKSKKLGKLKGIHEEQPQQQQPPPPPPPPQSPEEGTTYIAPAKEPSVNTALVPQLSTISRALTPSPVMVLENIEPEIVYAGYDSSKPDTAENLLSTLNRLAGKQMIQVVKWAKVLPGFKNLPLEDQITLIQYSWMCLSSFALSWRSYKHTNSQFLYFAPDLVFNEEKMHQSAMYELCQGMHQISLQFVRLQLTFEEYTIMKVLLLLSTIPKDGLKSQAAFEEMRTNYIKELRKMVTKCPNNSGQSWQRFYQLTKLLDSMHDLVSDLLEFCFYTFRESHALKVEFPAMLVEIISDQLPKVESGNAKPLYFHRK
# Assay: Binding affinity to recombinant human mineralocorticoid receptor expressed in baculovirus infected sf9 cells
# Settings: not given
row,IC50 [nM],SMILES
1,> 1000,Cc1ncc2c(N[C@H]3c4ccc(F)c(O)c4C(C)(C)C[C@]3(O)C(F)(F)F)cc(F)cc2n1
2,> 1000,CC[C@@H]1C[C@](O)(C(F)(F)F)[C@@H](Nc2cccc3nc(C)ccc23)c2ccc(F)c(O)c21
3,> 1000,CC(C)(CC(O)(CNc1cccc2c(=O)[nH]ccc12)C(F)(F)F)c1cccc(F)c1O (stereo not drawn)

# Target: T4, Androgen receptor (Homo sapiens, UniProt P10275)
# T4 sequence (P10275 whole entry): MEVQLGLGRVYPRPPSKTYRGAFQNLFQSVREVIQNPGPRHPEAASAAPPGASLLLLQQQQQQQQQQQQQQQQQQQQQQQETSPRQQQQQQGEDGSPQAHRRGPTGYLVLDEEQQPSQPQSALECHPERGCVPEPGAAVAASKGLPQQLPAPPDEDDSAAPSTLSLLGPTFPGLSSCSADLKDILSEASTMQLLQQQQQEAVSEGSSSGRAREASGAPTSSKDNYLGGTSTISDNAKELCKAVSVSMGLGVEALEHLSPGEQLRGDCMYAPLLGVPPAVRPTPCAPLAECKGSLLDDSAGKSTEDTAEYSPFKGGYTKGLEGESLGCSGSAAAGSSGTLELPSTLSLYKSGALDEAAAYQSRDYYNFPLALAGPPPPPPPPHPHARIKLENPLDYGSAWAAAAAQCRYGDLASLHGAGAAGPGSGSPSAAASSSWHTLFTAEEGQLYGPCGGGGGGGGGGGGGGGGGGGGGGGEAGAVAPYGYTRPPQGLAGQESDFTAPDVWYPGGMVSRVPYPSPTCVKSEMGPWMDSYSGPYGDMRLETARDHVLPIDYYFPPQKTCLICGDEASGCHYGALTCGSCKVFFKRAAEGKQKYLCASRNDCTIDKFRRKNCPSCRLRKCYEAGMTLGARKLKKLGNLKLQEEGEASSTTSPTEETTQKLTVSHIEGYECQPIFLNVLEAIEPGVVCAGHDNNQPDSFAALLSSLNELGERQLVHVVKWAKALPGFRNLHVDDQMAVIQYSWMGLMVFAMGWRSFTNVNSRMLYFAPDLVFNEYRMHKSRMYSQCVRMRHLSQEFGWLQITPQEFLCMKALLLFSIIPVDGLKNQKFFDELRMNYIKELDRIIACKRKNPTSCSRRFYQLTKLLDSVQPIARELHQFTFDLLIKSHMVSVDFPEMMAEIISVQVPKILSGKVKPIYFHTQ
# Assay: Binding affinity to recombinant human androgen receptor expressed in baculovirus infected sf9 cells
# Settings: not given
row,IC50 [nM],SMILES
1,> 1000,Cc1ncc2c(N[C@H]3c4ccc(F)c(O)c4C(C)(C)C[C@]3(O)C(F)(F)F)cc(F)cc2n1
2,> 1000,CC[C@@H]1C[C@](O)(C(F)(F)F)[C@@H](Nc2cccc3nc(C)ccc23)c2ccc(F)c(O)c21
3,> 1000,CC(C)(CC(O)(CNc1cccc2c(=O)[nH]ccc12)C(F)(F)F)c1cccc(F)c1O (stereo not drawn)

# Tested on: not listed separately
# Assay: Stability in human liver microsomes assessed as drug recovery after 30 mins
# Format: ADME, microsome
# Settings: read-out: Drug recovery
row,remaining at 0.5 h [%],SMILES
1,86,CC[C@@H]1C[C@](O)(C(F)(F)F)[C@@H](Nc2cccc3nc(C)ccc23)c2ccc(F)c(O)c21
2,13,CC(C)(CC(O)(CNc1cccc2c(=O)[nH]ccc12)C(F)(F)F)c1cccc(F)c1O (stereo not drawn)
